Experiments:
[1] = molecular target: megalin (Mus musculus, UniProt A2ARV4)
Description: Female C57BL/6 mice were divided into two groups. The first group (n=4) was treated subcutaneously with 100 mg/kg Cilastatin sodium salt (>98%, Sigma Aldrich, USA) once daily for 4 days, and the second group (n=3) was treated subcutaneously with DPBS for 4 days. On the day of the last treatment, the LC-NP was injected to the mice. 1 day post injection the mice were euthanized and perfused with DPBS, and the kidneys were harvested and imaged.
Without being bound by any particular theory, it was hypothesized that the accumulation of LC-NP in the PTECs of the kidney is dependent on its binding to megalin. To test this hypothesis, the mice were treated with cilastatin or vehicle (DPBS) for 4 days prior to injection of LC-NP. Cilastatin, an inhibitor of renal dehydropeptidase-I (DHP-I), blocks megalin-mediated uptake in the kidney through competitive inhibition^33. 24 hours post-injection of LC-NP, the mice were euthanized and the major organs were harvested for imaging. […] Next, the specific effect of cilastatin on the binding of LC-NPs to PTECs was examined by treating HK-2 human PTECs in vitro directly with LC-NPs and cilastatin.

[2] = molecular target: T1, megalin (Homo sapiens, UniProt P98164); test: Uptake of LC-NPs by HK-2 cells after cilastatin or megalin siRNA; format: cell-based; conditions: in vitro
T1 construct: effective knockdown of megalin expression in HK-2 cells was performed using siRNA directed against the megalin gene; host or cells: HK-2 human kidney proximal tubular epithelial cells
From the text: FIG. 4G-FIG. 4I. […] FIG. 4H: LC-NPs underwent lower uptake by HK-2 cells treated with cilastatin than vehicle (DPBS)-treated cells. […] Values are means±SD. means±SD. **P<0.01, and ***P<0.001 and ns: not significant as calculated by two-tailed Student's t-test.

megalin (Mus musculus, UniProt A2ARV4), sequence (A2ARV4 26-4660): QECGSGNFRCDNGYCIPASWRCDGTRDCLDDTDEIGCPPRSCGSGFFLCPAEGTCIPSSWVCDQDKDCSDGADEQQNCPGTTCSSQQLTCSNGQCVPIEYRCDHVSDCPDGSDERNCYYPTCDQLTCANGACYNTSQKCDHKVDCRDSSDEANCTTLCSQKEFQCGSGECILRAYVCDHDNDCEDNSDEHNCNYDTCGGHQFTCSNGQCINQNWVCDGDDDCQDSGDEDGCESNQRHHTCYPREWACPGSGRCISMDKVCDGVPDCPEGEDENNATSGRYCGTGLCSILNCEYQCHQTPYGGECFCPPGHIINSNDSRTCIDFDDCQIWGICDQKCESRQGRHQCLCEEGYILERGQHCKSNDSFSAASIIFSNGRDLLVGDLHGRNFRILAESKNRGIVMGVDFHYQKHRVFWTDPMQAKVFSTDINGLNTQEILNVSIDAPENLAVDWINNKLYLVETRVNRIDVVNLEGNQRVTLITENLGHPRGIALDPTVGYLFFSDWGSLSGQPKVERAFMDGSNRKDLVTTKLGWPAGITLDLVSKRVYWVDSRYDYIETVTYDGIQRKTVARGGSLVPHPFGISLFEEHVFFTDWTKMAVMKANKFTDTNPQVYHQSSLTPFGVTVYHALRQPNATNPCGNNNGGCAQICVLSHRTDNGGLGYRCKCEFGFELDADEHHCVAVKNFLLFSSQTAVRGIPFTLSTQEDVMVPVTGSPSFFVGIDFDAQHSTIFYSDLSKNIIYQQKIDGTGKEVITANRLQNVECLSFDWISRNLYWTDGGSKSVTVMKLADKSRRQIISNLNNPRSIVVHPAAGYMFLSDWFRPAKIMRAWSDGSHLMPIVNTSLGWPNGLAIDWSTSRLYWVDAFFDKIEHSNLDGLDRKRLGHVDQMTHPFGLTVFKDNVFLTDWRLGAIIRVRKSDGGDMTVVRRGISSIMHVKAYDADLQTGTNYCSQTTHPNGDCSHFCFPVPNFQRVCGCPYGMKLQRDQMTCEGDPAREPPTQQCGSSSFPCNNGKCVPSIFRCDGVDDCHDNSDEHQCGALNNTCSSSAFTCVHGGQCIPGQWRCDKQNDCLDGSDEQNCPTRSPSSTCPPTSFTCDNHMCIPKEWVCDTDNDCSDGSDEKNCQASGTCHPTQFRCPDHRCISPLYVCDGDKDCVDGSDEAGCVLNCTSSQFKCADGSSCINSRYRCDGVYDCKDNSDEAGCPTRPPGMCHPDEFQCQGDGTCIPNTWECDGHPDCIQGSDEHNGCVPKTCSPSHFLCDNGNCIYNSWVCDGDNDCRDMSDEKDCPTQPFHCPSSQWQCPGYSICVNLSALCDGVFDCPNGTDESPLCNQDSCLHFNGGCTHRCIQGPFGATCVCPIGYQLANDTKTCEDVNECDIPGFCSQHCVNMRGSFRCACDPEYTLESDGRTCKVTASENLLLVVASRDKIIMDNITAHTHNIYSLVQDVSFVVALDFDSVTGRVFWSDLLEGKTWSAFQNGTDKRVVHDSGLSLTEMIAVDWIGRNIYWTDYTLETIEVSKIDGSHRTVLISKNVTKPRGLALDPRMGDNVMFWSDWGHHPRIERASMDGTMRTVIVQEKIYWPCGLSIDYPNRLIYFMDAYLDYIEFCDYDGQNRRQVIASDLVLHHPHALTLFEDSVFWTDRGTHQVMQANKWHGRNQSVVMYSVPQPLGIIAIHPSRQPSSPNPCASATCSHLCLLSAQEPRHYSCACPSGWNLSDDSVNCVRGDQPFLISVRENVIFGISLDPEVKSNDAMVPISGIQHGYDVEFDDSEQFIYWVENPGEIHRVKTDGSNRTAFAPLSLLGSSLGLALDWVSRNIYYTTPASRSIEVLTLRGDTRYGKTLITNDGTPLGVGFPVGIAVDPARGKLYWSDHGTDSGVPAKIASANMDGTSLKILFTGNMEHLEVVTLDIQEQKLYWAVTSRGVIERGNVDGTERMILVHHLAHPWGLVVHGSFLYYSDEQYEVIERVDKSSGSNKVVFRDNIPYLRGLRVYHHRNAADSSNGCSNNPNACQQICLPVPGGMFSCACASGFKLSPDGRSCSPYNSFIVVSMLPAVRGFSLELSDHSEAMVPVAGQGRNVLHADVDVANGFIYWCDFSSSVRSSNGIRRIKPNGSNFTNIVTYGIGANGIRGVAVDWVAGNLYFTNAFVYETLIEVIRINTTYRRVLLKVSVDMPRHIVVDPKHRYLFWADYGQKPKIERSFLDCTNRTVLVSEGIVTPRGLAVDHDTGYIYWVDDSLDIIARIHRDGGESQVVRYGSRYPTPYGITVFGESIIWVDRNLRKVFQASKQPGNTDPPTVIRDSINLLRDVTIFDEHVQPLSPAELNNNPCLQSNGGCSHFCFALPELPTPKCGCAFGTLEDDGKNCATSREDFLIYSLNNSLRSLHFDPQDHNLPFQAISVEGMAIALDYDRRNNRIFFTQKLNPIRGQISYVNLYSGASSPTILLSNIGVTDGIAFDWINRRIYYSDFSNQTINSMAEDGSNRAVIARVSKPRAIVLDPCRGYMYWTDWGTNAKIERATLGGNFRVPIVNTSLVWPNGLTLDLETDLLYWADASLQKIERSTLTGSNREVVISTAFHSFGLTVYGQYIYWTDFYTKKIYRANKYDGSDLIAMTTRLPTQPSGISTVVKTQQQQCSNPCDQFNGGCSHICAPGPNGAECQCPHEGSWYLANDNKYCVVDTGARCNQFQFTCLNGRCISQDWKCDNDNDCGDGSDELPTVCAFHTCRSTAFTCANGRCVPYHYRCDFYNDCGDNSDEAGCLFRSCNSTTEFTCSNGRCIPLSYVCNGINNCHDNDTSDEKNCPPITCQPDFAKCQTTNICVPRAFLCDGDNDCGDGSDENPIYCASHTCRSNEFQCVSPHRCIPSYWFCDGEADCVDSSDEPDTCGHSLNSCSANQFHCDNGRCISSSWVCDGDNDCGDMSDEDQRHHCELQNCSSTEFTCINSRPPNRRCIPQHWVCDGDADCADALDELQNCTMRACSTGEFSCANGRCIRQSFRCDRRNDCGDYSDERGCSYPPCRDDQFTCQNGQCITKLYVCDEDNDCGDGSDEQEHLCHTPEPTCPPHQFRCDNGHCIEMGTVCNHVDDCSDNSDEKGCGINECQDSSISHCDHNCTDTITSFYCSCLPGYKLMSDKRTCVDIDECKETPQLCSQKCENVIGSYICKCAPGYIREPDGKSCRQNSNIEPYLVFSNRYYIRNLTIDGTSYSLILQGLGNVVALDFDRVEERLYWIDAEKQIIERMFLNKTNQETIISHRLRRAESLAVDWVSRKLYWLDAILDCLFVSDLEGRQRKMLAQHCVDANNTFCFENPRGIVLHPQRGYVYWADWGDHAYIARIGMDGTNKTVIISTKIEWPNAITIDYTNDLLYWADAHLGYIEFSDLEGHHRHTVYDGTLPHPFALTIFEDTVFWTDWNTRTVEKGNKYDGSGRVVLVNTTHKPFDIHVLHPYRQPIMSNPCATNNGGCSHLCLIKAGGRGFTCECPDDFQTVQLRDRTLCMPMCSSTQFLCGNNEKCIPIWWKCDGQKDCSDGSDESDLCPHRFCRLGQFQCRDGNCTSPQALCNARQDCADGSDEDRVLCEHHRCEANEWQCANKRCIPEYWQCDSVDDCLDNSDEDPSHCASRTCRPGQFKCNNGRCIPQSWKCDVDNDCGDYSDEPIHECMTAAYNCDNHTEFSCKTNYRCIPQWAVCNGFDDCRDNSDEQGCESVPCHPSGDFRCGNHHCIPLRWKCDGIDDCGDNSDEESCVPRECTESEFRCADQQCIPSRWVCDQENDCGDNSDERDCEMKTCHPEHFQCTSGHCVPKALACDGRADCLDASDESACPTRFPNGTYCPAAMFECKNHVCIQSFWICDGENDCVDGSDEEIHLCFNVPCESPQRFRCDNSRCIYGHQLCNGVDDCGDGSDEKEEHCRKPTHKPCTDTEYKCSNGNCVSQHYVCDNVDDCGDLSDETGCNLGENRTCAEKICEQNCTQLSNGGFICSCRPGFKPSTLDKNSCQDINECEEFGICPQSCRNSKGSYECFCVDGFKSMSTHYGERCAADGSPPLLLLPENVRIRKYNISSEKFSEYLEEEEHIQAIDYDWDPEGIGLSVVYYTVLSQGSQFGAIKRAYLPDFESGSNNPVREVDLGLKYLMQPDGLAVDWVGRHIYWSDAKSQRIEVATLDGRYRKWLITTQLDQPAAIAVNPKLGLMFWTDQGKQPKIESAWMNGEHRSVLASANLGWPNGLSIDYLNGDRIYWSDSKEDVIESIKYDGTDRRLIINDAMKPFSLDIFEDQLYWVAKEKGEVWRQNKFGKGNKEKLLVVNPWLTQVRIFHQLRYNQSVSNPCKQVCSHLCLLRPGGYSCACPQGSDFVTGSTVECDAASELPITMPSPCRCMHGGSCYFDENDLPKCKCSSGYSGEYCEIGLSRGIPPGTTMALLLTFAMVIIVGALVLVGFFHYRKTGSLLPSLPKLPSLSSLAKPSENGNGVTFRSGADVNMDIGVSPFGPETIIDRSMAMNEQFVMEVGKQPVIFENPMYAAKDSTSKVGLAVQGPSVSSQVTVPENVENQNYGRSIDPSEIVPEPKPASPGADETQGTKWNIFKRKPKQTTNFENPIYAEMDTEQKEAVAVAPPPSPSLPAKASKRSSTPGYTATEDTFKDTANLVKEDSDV

Compound: CC1(C)C[C@@H]1C(=O)N/C(=C\CCCCSC[C@H](N)C(=O)O)C(=O)O [cilastatin, Cilastatin]
- kidney MFI of LC-NP, cilastatin-treated vs vehicle-treated mice ([1]; cilastatin 4 days before LC-NP, 24 hours post-injection): significantly lower
- kidney MFI of NPs, cilastatin-treated vs vehicle-treated mice ([1]; mice injected with NPs): no statistical difference
- number of LC-NPs taken up by HK-2 cells, with vs without cilastatin [2]: significantly lower

Source: patent US12721906B2, “Kidney targeted delivery of drugs” (The Brigham and Women's Hospital, Inc., priority 2020, dated 2026)
